Test results published in paper PMC12396409, “Screening and hit evaluation of a microbial metabolite library against the pathogenic Plasmodium falciparum and Toxoplasma gondii parasites” (International Journal for Parasitology: Drugs and Drug …, 2025).
Like-named read-outs stand apart in the source and are kept apart here.

Legend:
[1] = tested on: T. gondii RH strain (RH-Tub-eYFP) tachyzoites; assay: microbe, parasite or virus in culture; format: cell-based, Toxoplasma gondii; settings: for percent parasite growth at 2 µg/mL: Toxoplasma gondii
[2] = tested on: P. falciparum 3D7 parasites; assay: P. falciparum growth inhibition assay, 1-cycle (72 h treatment), SYBR DNA staining (library screen at 2 μg/mL and dose-response); format: cell-based, Plasmodium falciparum; settings: for activity at 2 µg/mL: Plasmodium falciparum
[3] = tested on: P. falciparum 3D7 parasites; assay: P. falciparum growth inhibition assay, 2-cycle (120 h treatment), delayed-death screen and dose-response; format: cell-based, Plasmodium falciparum; settings: for activity at 2 µg/mL: Plasmodium falciparum, 3D7, 120 h
[4] = T. gondii, 72 h, screen at 2 μg/mL, replicate 1
[5] = T. gondii, 72 h, screen at 2 μg/mL, replicate 2
[6] = P. falciparum, 72 h, screen at 2 μg/mL, replicate 1
[7] = P. falciparum, 72 h, screen at 2 μg/mL, replicate 2
[8] = P. falciparum, 120 h, screen at 2 μg/mL, replicate 1
[9] = P. falciparum, 120 h, screen at 2 μg/mL, replicate 2
[10] = T. gondii, 72 h, parasite screen at 2 μg/mL, % growth, replicate 1
[11] = T. gondii, 72 h, parasite screen at 2 μg/mL, % growth, replicate 2
[12] = P. falciparum 3D7, 72 h, parasite screen at 2 μg/mL, % growth, replicate 1
[13] = P. falciparum 3D7, 72 h, parasite screen at 2 μg/mL, % growth, replicate 2
[14] = P. falciparum 3D7, 120 h, parasite screen at 2 μg/mL, % growth, replicate 1
[15] = P. falciparum 3D7, 120 h, parasite screen at 2 μg/mL, % growth, replicate 2
[16] = 2 μg/mL, 72 h, active = ≥80 % growth inhibition
[17] = library screen at 2 μg/mL, 72 h, % growth, replicate 1
[18] = library screen at 2 μg/mL, 72 h, % growth, replicate 2

Aflatoxin G2
Tg_72h_%Growth_Rep1 [1]: 134.03% | Tg_72h_%Growth_Rep2 [1]: 98.49% | Pf_72h_%Growth_Rep1 [2]: 83.21% | Pf_72h_%Growth_Rep2 [2]: 86.33% | Pf_120h_%Growth_Rep1 [3]: 98.15% | Pf_120h_%Growth_Rep2 [3]: 97.03%

CC=C1CN(C)C2Cc3c([nH]c4ccccc34)C(c3cc4[nH]c5c(c4cc3OC)CCN3CC4CC(CC)C3C5(C(=O)OC)C4)CC1C2C(=O)OC (stereo not drawn) [Voacamine]
percent parasite growth at 2 µg/mL ([1]; 72 h, T. gondii, 72 h, screen at 2 μg/mL, replicate 1, read-out: Tg_72h_%Growth_Rep1): 97% | percent parasite growth at 2 µg/mL ([1]; 72 h, T. gondii, 72 h, screen at 2 μg/mL, replicate 2, read-out: Tg_72h_%Growth_Rep2): 101% | activity at 2 µg/mL ([2]; 3D7, 72 h, P. falciparum, 72 h, screen at 2 μg/mL, replicate 1, read-out: Pf_72h_%Growth_Rep1): 56.2% | activity at 2 µg/mL ([2]; 3D7, 72 h, P. falciparum, 72 h, screen at 2 μg/mL, replicate 2, read-out: Pf_72h_%Growth_Rep2): 62% | activity at 2 µg/mL ([3]; P. falciparum, 120 h, screen at 2 μg/mL, replicate 1, read-out: Pf_120h_%Growth_Rep1): 106% | activity at 2 µg/mL ([3]; P. falciparum, 120 h, screen at 2 μg/mL, replicate 2, read-out: Pf_120h_%Growth_Rep2): 45.2%

Telomycin
Tg_72h_%Growth_Rep1 [1, 4]: 151.31% | Tg_72h_%Growth_Rep2 [1, 5]: 89.83% | Pf_72h_%Growth_Rep1 [2, 6]: 87.11% | Pf_72h_%Growth_Rep2 [2, 7]: 125.88% | Pf_120h_%Growth_Rep1 [3, 8]: 103.58% | Pf_120h_%Growth_Rep2 [3, 9]: 79.40%

CC1=C[C@H]2O[C@@H]3[C@H](O)[C@@H](O)[C@](C)([C@@]2(CO)[C@H](O)C1=O)[C@]31CO1 [BIA-N1920]
Tg_72h_%Growth_Rep1 [1, 10]: 0.21% | Tg_72h_%Growth_Rep2 [1, 11]: 0.91% | Pf_72h_%Growth_Rep1 [2, 12]: 4.51% | Pf_72h_%Growth_Rep2 [2, 13]: -2.70% | Pf_120h_%Growth_Rep1 [3, 14]: 18.13% | Pf_120h_%Growth_Rep2 [3, 15]: 5.74%

COc1ccc2c3c(c4cc(OC)c(OC)cc4c2c1)C[C@H]1CCCCN1C3 [Cryptopleurine]
activity in the screen against T. gondii [1, 16]: activity against both parasites | IC50 ([1]; RH strain, 72 h, mean ± S.D., n ≥ 3, read-out: IC50 (μM), T. gondii (converted)): 0.011 µM | Tg_72h_%Growth_Rep1 [1, 4]: 6.11% | Tg_72h_%Growth_Rep2 [1, 5]: 2.53% | Screen (T. gondii) ([1]; library screen at 2 μg/mL, RH strain, 72 h): A, A | activity in the screen against P. falciparum [2, 16]: activity against both parasites | IC50 ([2]; 3D7, 72 h treatment, mean ± S.D., n ≥ 3, read-out: IC50 (μM), P. falciparum): 0.008 ± 0.003 µM | Pf_72h_%Growth_Rep1 [2, 6]: 8.09% | Pf_72h_%Growth_Rep2 [2, 7]: -1.65% | Screen (P. falciparum) ([2]; library screen at 2 μg/mL, 3D7, 72 h, DD from the 120 h timepoint): A, A | Pf_120h_%Growth_Rep1 [3, 8]: 9.09% | Pf_120h_%Growth_Rep2 [3, 9]: 3.06%

CC(C)Cc1cnc(C(O)C(C)C)c(=O)n1O (stereo not drawn) [BIA-N1641]
Tg_72h_%Growth_Rep1 [1, 10]: 143.25% | Tg_72h_%Growth_Rep2 [1, 11]: 85.15% | Pf_72h_%Growth_Rep1 [2, 12]: 83.86% | Pf_72h_%Growth_Rep2 [2, 13]: 85.70% | Pf_120h_%Growth_Rep1 [3, 14]: 89.64% | Pf_120h_%Growth_Rep2 [3, 15]: 132.16%

CC[C@H](C)C(=O)O[C@H]1CCC=C2C=C[C@H](C)[C@H](CC[C@@H]3C[C@@H](O)CC(=O)O3)[C@H]21 [BIA-M1209]
Tg_72h_%Growth_Rep1 [1, 10]: 113.16% | Tg_72h_%Growth_Rep2 [1, 11]: 83.90% | Pf_72h_%Growth_Rep1 [2, 12]: 86.39% | Pf_72h_%Growth_Rep2 [2, 13]: 121.47% | Pf_120h_%Growth_Rep1 [3, 14]: 88.69% | Pf_120h_%Growth_Rep2 [3, 15]: 112.58%

CN(C)[C@@H]1C(=O)C(C(N)=O)=C(O)[C@@]2(O)C(=O)C3=C(O)c4c(O)cccc4C[C@H]3C[C@@H]12.Cl [Sancycline hydrochloride]
Tg_72h_%Growth_Rep1 ([1]; T. gondii, 72 h, parasite screen 2 μg/mL, % growth, replicate 1): 58.51% | Tg_72h_%Growth_Rep2 ([1]; T. gondii, 72 h, parasite screen 2 μg/mL, % growth, replicate 2): 60.28% | Pf_72h_%Growth_Rep1 ([2]; P. falciparum, 72 h, parasite screen 2 μg/mL, % growth, replicate 1): 1.26% | Pf_72h_%Growth_Rep2 ([2]; P. falciparum, 72 h, parasite screen 2 μg/mL, % growth, replicate 2): 7.80% | Pf_120h_%Growth_Rep1 ([3]; P. falciparum, 120 h, parasite screen 2 μg/mL, % growth, replicate 1): 6.81% | Pf_120h_%Growth_Rep2 ([3]; P. falciparum, 120 h, parasite screen 2 μg/mL, % growth, replicate 2): 7.98%

CN(C)[C@H]1C(O)=C(C(N)=O)C(=O)[C@@]2(O)C(O)=C3C(=O)c4c(O)cccc4[C@@](C)(O)[C@H]3[C@H](O)[C@@H]12 [Epioxytetracycline]
Tg_72h_%Growth_Rep1 [1, 17]: 152.95% | Tg_72h_%Growth_Rep2 [1, 18]: 107.04% | Pf_72h_%Growth_Rep1 [2, 17]: 86.72% | Pf_72h_%Growth_Rep2 [2, 18]: 78.69% | Pf_120h_%Growth_Rep1 ([3]; library screen at 2 μg/mL, 120 h, % growth, replicate 1): 99.19% | Pf_120h_%Growth_Rep2 ([3]; library screen at 2 μg/mL, 120 h, % growth, replicate 2): 96.08%
